Earlier results as cited in patent US20230081296A1, “STABLE NON-AQUEOUS COMPOSITIONS OF PLANTS EXTRACTS AND METHODS OF MAKING THE SAME” (Nulixir Inc., priority 2021, published 2023).

Conditions: reference phases water and n-octanol; categorization assumed at pH = 7 unless stated otherwise

Row | Compound | logP
1 | tortuosomine | ~3
2 | (R)-kawain | ~2.7
3 | COc1ccc([C@@]23CCC(=O)C[C@@H]2N(C)CC3)cc1OC [mesembrine] | ~1.5
4 | CC1=C(CO)C(=O)O[C@@H]([C@@H](C)[C@H]2CC[C@H]3[C@@H]4C[C@H](Cl)[C@]5(O)[C@@H](O)C=CC(=O)[C@]5(C)[C@H]4CC[C@]23C)C1 [6a-chloro-5b-hydroxywithaferin A] | ~3.2
5 | COc1cc2c(c(OC)c1OC)-c1c(cc(OC)c(OC)c1OC)C[C@H](C)[C@H](C)C2 [(-)-schisandrin A] | ~3.6
6 | COc1cc(/C=C/c2ccccc2)oc(=O)c1 [5,6-dehydrokawain] | ~2.9
7 | COc1cc2c(c(OC)c1OC)-c1c(cc(OC)c(OC)c1OC)C[C@](C)(O)[C@@H](C)C2 [(+)-schisandrin] | ~5
8 | COC1=CC(=O)O[C@@H](CCc2ccc3c(c2)OCO3)C1 [7,8-dihydromethysticin] | ~2.2
9 | hericerin | ~6.4
10 | COc1ccc(CCc2cc(OC)cc(=O)o2)cc1 [7,8-dihydroyangonin] | ~2.9
11 | COc1cc([C@H]2Oc3cc(O)c4c(=O)c(O)c(-c5ccc(O)cc5)oc4c3O[C@@H]2CO)ccc1O [rhodiolin] | ~2
12 | bacopaside B | ~2.8
13 | schisandroside C | ~1.6
14 | COc1nc2c(c(=O)n1C)n(C)c(=O)n2C [methylliberine] | ~-0.083
15 | N#C[C@@]1(O[C@@H]2O[C@H](CO)[C@@H](O)[C@H](O)[C@H]2O)C=C[C@@H](O)C1 [tetraphyllin B] | ~-2.5
16 | CC(/C=C/C=C(\C)C(=O)O[C@@H]1O[C@H](CO[C@@H]2O[C@H](CO)[C@@H](O)[C@H](O)[C@H]2O)[C@@H](O)[C@H](O)[C@H]1O)=C\C=C\C=C(C)\C=C\C=C(/C)C(=O)O[C@@H]1O[C@H](CO[C@@H]2O[C@H](CO)[C@@H](O)[C@H](O)[C@H]2O)[C@@H](O)[C@H](O)[C@H]1O [alpha -crocin] | ~-1.5
17 | COC1=CC(=O)OC(/C=C/c2ccc(OC)cc2)C1 (centres unmarked) [5,6-dihydroyangonin] | ~2.5
18 | (-)-schisandrin C | ~3.5
19 | COc1cc2c(c(OC)c1OC)-c1c(cc(OC)c(OC)c1OC)C[C@](C)(O)[C@@H](C)C2 [schisandrol A] | ~3.4
20 | herinacine A | ~2.5
21 | CC(=O)OC1C=CC(=O)N(C(=O)CCc2ccccc2)C1 (centres unmarked) [pipermethystine] | ~1.8
22 | COc1cc(/C=C\c2ccc(OC)c(O)c2)oc(=O)c1 [11-hydroxyyangonin] | ~2.2
23 | COc1cc2c(c(OC)c1OC)-c1c(cc3c(c1OC)OCO3)CC(C)C(C)C2 (single isomer, unassigned; (-)) [(-)-schisandrin B] | ~4
